Among the test systems are SR; UO-31; MOLT-4; BT-549; TK-10; MCF7; OVCAR-4; KM12; NCI-H460; CCRF-CEM; SW-620; NCI/ADR-RES; HL-60; COLO 205; A498; OVCAR-8; M14; RXF 393; T47D; SNB-78.
What all share (experiment): NCI tumour cell line growth inhibition, 48 h

Each structure is given as a SMILES string.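 How tested: cells in 96-well plates exposed to compound for 48 hours at five concentrations. At the GI50, growth is halved.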 Activity calls are given as the source filed them. Cut-off read from the data, not from the text of the source: active = GI50 up to about 1.1 µM and inactive = higher.

The values below come from ChEMBL document CHEMBL1201862, “PubChem BioAssay data set” (2004).

For `C[C@H]1CC[C@@H]2[C@@H](C)[C@H]3[C@H](C[C@H]4[C@@H]5CC=C6C[C@@H](O)CC[C@]6(C)[C@H]5CC[C@]34C)N2C1`, the GI50 is 22.6 µM (inactive) in the experiment with SR; 60.5 µM (inactive) in the experiment on UO-31; 24.5 µM (inactive) in the experiment on MOLT-4; 93.1 µM (inactive) with BT-549; 33 µM (inactive) in the experiment with TK-10; 38.5 µM (inactive) in the experiment on MCF7. Further, the GI50 with OVCAR-4 is 32.4 µM (inactive); in the experiment with KM12, 30.3 µM (inactive); in the experiment on NCI-H460, 37.9 µM (inactive); in the experiment with CCRF-CEM, 32.5 µM (inactive); in the experiment with SW-620, 75.2 µM (inactive); with NCI/ADR-RES, 54.7 µM (inactive). Besides, the GI50 was 17.5 µM (inactive) in the experiment with HL-60; 16.3 µM (inactive) in the experiment with COLO 205; 13.6 µM (inactive) in the experiment with A498; 32.5 µM (inactive) with OVCAR-8; 74 µM (inactive) with M14; 19.4 µM (inactive) in the experiment with RXF 393. For the same compound, the GI50 with T47D was 86.9 µM (inactive).
As for `CC(O)CNC(=O)C(C)Oc1ccc(OCC2CCCCC2)cc1` (stereo not given), the GI50 with SNB-78, in the experiment with UO-31, with MOLT-4, with TK-10, in the experiment with OVCAR-4 and with KM12 was > 100 µM (inactive) throughout. Besides, the GI50 with NCI-H460 was > 100 µM (inactive); in the experiment with CCRF-CEM, > 100 µM (inactive); with HL-60 it was > 100 µM (inactive); in the experiment with A498, 20.7 µM (inactive); in the experiment on OVCAR-8 it was > 100 µM (inactive); in the experiment on M14, > 100 µM (inactive).
Consider `C=C1C(=O)C2=CC1CCC(=O)C1(C)CCC(OC(C)=O)C(C)(C)C1CC2O` (stereo not given), for which the GI50 in the experiment on SR is 0.347 µM (active); in the experiment on UO-31 it was 2.06 µM (inactive); with MOLT-4, 0.661 µM (active); in the experiment on BT-549, 3.08 µM (inactive); in the experiment with TK-10, 5.86 µM (inactive); with MCF7, 0.798 µM (active). Further, the GI50 is 2.17 µM (inactive) in the experiment with OVCAR-4; 3.31 µM (inactive) in the experiment with KM12; 1.63 µM (inactive) with NCI-H460; 0.392 µM (active) in the experiment on CCRF-CEM; 2.42 µM (inactive) in the experiment on SW-620; 4.11 µM (inactive) with NCI/ADR-RES. For the same compound, the GI50 was 0.288 µM (active) in the experiment on HL-60; 0.771 µM (active) with COLO 205; 3.18 µM (inactive) with A498; 3.81 µM (inactive) in the experiment with OVCAR-8; 2.64 µM (inactive) in the experiment with M14; 2.23 µM (inactive) with RXF 393. In addition, the GI50 with T47D is 3.74 µM (inactive).
`CCOC(=O)/C(=C\c1ccc(N(CCC#N)CCC#N)cc1C)NC(=O)/C=C/c1ccccc1`: the GI50 with SNB-78, with UO-31, in the experiment with MOLT-4, with TK-10, in the experiment on KM12 and in the experiment on NCI-H460 was > 100 µM (inactive) in each case. Also, the GI50 in the experiment on CCRF-CEM, with SW-620, in the experiment with HL-60, in the experiment with COLO 205, with A498 and with OVCAR-8 was > 100 µM (inactive) each time. Further, the GI50 in the experiment with M14 and in the experiment with RXF 393 was > 100 µM (inactive) in each case.
Take `OC(c1cc(C23CC4CC(CC(C4)C2)C3)nc2c(Cl)cc(Cl)cc12)C1CCCCN1` (stereo not given): the GI50 was 0.705 µM (active) in the experiment with SR; 0.204 µM (active) in the experiment on UO-31; 0.608 µM (active) in the experiment with MOLT-4; 2.02 µM (inactive) with BT-549; 1.84 µM (inactive) in the experiment on TK-10; 1.6 µM (inactive) in the experiment on MCF7. The GI50 was 1.69 µM (inactive) with OVCAR-4; 1.67 µM (inactive) in the experiment on KM12; 1.61 µM (inactive) in the experiment on NCI-H460; 0.743 µM (active) in the experiment on CCRF-CEM; 1.57 µM (inactive) in the experiment with SW-620; 2.06 µM (inactive) with NCI/ADR-RES. Moreover, the GI50 with HL-60 is 2.11 µM (inactive); in the experiment with COLO 205, 1.71 µM (inactive); in the experiment on A498 it was 1.7 µM (inactive); in the experiment with OVCAR-8, 2.36 µM (inactive); in the experiment on M14, 1.8 µM (inactive); with RXF 393, 1.6 µM (inactive). Also, in the experiment with T47D, the GI50 was 1.79 µM (inactive).
Consider `O=P1(N(CCCl)CCCl)Oc2c(Cl)cc(Cl)c(Cl)c2Cc2c(Cl)c(Cl)cc(Cl)c2O1`, for which the GI50 in the experiment on SR was 35.2 µM (inactive); in the experiment on UO-31, 48.4 µM (inactive); in the experiment with MOLT-4, 95.7 µM (inactive); with BT-549, > 100 µM (inactive); with TK-10 it was 25 µM (inactive); in the experiment on MCF7, 64.7 µM (inactive). Further, the GI50 with OVCAR-4 was 26.7 µM (inactive); in the experiment on KM12, 42 µM (inactive); in the experiment on NCI-H460, 25.2 µM (inactive); in the experiment with CCRF-CEM, 29.2 µM (inactive); with SW-620, 47.4 µM (inactive); with NCI/ADR-RES, 45 µM (inactive). Besides, the GI50 in the experiment on HL-60 was > 100 µM (inactive); in the experiment with COLO 205, 22.5 µM (inactive); with A498 it was > 100 µM (inactive); in the experiment with OVCAR-8 it was 55.1 µM (inactive); in the experiment on M14 it was 75.3 µM (inactive); with RXF 393 it was > 100 µM (inactive). Further, the GI50 with T47D is > 100 µM (inactive).
Consider `O=C1c2ccccc2C(=O)c2oc(Br)cc21`, for which the GI50 was 1.09 µM (active) in the experiment on SR; 1.47 µM (inactive) in the experiment with UO-31; 1.8 µM (inactive) with MOLT-4; 1.16 µM (inactive) in the experiment with BT-549; 2.9 µM (inactive) in the experiment on TK-10; 0.46 µM (active) with MCF7. Moreover, the GI50 is 1.87 µM (inactive) in the experiment with OVCAR-4; 1.23 µM (inactive) in the experiment with KM12; 0.845 µM (active) in the experiment with NCI-H460; 1.95 µM (inactive) in the experiment on CCRF-CEM; 0.34 µM (active) in the experiment on SW-620; 2.22 µM (inactive) in the experiment on NCI/ADR-RES. The GI50 is 0.378 µM (active) with HL-60; 1.92 µM (inactive) in the experiment on COLO 205; 1.94 µM (inactive) with A498; 1.38 µM (inactive) with OVCAR-8; 0.161 µM (active) with M14; 1.49 µM (inactive) with RXF 393. The GI50 in the experiment on T47D was 1.73 µM (inactive).
As for `N#CC1(Nc2ccc(-c3ccc(NC4(C#N)CCCC4)cc3)cc2)CCCC1`, the GI50 with SR was > 100 µM (inactive); with UO-31, > 100 µM (inactive); in the experiment on MOLT-4, 86.1 µM (inactive); in the experiment on BT-549, > 100 µM (inactive); in the experiment on TK-10 it was > 100 µM (inactive); in the experiment with MCF7, > 100 µM (inactive). In addition, the GI50 is > 100 µM (inactive) in the experiment on OVCAR-4; > 100 µM (inactive) with KM12; > 100 µM (inactive) in the experiment with NCI-H460; 0.0104 µM (active) in the experiment with CCRF-CEM; > 100 µM (inactive) with SW-620; > 100 µM (inactive) with NCI/ADR-RES. Also, the GI50 in the experiment on HL-60, with COLO 205, in the experiment with A498, in the experiment with OVCAR-8, with M14 and in the experiment with RXF 393 was > 100 µM (inactive) each time. The GI50 in the experiment with T47D was > 100 µM (inactive).
